Columns and labels:
Pim-2 = Pim-2 (Homo sapiens (Human), UniProt Q9P1W9); experiment: ADP-Glo Kinase Assay, Pim-2; type: biochemical; conditions: 1 μM compound
Method in brief: (§1)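 Compounds were diluted in assay buffer to 1000 nM and incubated with kinase, substrate and ATP at apparent Km. Remaining ATP was depleted, ADP converted to ATP and detected by luciferase; percent inhibition came from normalized luminescence.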

FLT3-ITD = experiment: ADP-Glo Kinase Assay, Flt3 ITD; type: biochemical, Human; conditions: 1 μM compound
Experimental: Compounds of the present invention were tested for their inhibitory activity against Pim-1, Pim-2, Pim-3, Flt3 wt, Flt3 ITD, CDK2/E and DYRK1. The testing of the compounds was carried out using the ADP-Glo™ Kinase Assay from Promega Corporation (Madison, Wis., USA).
The ADP-Glo™ Kinase Assay is a luminescent ADP detection assay to measure kinase activity by quantifying the amount of ADP produced during a kinase reaction. The kinase assay is performed in kinase assay buffer (5 mM MOPS, pH 7.5, 5 mM MgCl2, 0.4 mM EDTA, 1.5 mM DTT). Test samples initially dissolved in DMSO at 10 mM were diluted with the assay buffer to 1000 nM. A 30 μL volume/well of a mixture of substrates containing ATP (final ATP concentration in each kinase assay was equal to its apparent ATP Km).
The assay was performed in two steps: first, after the kinase reaction, an equal volume of ADP-Glo™ Reagent was added to terminate the kinase reaction and deplete the remaining ATP. Second, the Kinase Detection Reagent was added to simultaneously convert ADP to ATP and allowed the newly synthesized ATP to be measured using a luciferase/luciferin reaction. The luminescent signal generated was proportional to the ADP concentration produced and was correlated with kinase activity. A microplate spectrophotometer (Synergy 2 multi-mode microplate reader [BioTek]) was used for detecting the luminescence. The data was normalized and the percent of inhibition was obtained according to the following equation: […]

HepG2 cells = experiment: Growth inhibition, MTS assay, HepG2; type: cell-based, Human; conditions: 72 hours, MTS cell viability; read-out: HepG2 ED50
MOLM16 cells = experiment: Growth inhibition, MTS assay, MOLM16; type: cell-based, Human; conditions: 72 hours, MTS cell viability; read-out: MOLM 16 ED50
CDK2/E = CDK2/E (Homo sapiens (Human), UniProt P24941); experiment: ADP-Glo Kinase Assay, CDK2/E; type: biochemical; conditions: 1 μM compound
Method in brief: as §1

KG-1 cells = experiment: Growth inhibition, MTS assay, KG-1; type: cell-based, Human; conditions: 72 hours, MTS cell viability
Source text: (§2) The following cell lines, were obtained and used in tests as outlined below: • Human myelomonocytic, biphenotypic leukemia MV4-11 cells (harboring a Flt3-ITD mutation); • Human Acute Myeloid Leukemia MOLM16 cells; • Human Acute Myeloid Leukemia MOLM13 cells (harboring a Flt3-ITD mutation); • Human Myeloid Leukemia KG-1 cells; • Human erythroleukemia HEL92 cells; • Human mantle cell lymphoma Jeko-1 cells; • Human hepatocellular carcinoma HepG2 cells; and • Human colon adenocarcinoma SW-480 cells.
(§3) The assays were carried out according to the following protocol, which is described as an example for the MV4-11 cells:
(§4) Ten thousand MV4-11 cells were inoculated into each well of a 96-well microplate (manufactured by Corning Corp.) using Iscove's MDM medium (culture medium) containing 10% fetal calf serum (FCS). The same day, a dimethyl sulfoxide (DMSO) solution of each test compound prepared in a concentration of 10 mmol/L was further diluted with DMSO to the desired concentrations (0.1, 0.5, 1, 2.5, 5 and 10 micromol/L), and the diluted solution was added to each well. The individual wells were further cultured in 5% carbon dioxide at 37° C. for 72 hours. […] Briefly, 10 μl MTS (3-(4,5-Dimethyl-2-thiazolyl)-5-(carboxymethoxyphenyl)-2-(4-sulfophenyl)-2H-tetrazolium was added to each well, and culturing was performed in 5% carbon dioxide at 37° C. for 2 hours. After this incubation and using a microplate spectrophotometer (Synergy 2 multi-mode microplate reader (BioTek)), the absorbance of each well was measured at 490 nm. The value for cells not incubated with a test compound was designated as 100%. By comparing these values with the absorbance difference obtained at the well in which each test compound was added, the cell viability (% viability) after treatment with the test compound was calculated.

SW-480 cells = experiment: Growth inhibition, MTS assay, SW-480; type: cell-based, Human; conditions: 72 hours, MTS cell viability; read-out: SW-480 ED50
Jeko-1 cells = experiment: Growth inhibition, MTS assay, Jeko-1; type: cell-based, Human; conditions: 72 hours, MTS cell viability; read-out: Jeko-1 ED50
DYRK1 = DYRK1 (Homo sapiens (Human), UniProt Q13627); experiment: ADP-Glo Kinase Assay, DYRK1; type: biochemical; conditions: 1 μM compound
Method in brief: as §1

Pim-3 = Pim-3 (Homo sapiens (Human), UniProt Q86V86); experiment: ADP-Glo Kinase Assay, Pim-3; type: biochemical; conditions: 1 μM compound
Method in brief: as §1

MOLM13 cells = experiment: Growth inhibition, MTS assay, MOLM13; type: cell-based, Human; conditions: 72 hours, MTS cell viability; read-out: MOLM 13 ED50
Source text: as §2, §3, §4

MV4-11 xenograft = MV4-11 xenograft in immunocompromised mice; type: in vivo; conditions: MV4-11 xenograft, oral
Method in brief: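 MV4-11 leukemic cells engrafted in NOD/scid or SCID/beige mice; oral dosing started at tumor volume approx. 50-200 mm^3, daily QD or BID for 2-3 weeks. Efficacy read as tumor growth inhibition (TGI), tolerability as body weight change (ΔBW).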

MV4-11 cells = experiment: Growth inhibition, MTS assay, MV4-11; type: cell-based, Human; conditions: 72 hours, MTS cell viability; read-out: MV4-11 ED50
FLT3wt = FLT3wt (Homo sapiens (Human), UniProt P36888); experiment: ADP-Glo Kinase Assay, Flt3 wt; type: biochemical; conditions: 1 μM compound
FLT3wt, sequence (P36888 27-993): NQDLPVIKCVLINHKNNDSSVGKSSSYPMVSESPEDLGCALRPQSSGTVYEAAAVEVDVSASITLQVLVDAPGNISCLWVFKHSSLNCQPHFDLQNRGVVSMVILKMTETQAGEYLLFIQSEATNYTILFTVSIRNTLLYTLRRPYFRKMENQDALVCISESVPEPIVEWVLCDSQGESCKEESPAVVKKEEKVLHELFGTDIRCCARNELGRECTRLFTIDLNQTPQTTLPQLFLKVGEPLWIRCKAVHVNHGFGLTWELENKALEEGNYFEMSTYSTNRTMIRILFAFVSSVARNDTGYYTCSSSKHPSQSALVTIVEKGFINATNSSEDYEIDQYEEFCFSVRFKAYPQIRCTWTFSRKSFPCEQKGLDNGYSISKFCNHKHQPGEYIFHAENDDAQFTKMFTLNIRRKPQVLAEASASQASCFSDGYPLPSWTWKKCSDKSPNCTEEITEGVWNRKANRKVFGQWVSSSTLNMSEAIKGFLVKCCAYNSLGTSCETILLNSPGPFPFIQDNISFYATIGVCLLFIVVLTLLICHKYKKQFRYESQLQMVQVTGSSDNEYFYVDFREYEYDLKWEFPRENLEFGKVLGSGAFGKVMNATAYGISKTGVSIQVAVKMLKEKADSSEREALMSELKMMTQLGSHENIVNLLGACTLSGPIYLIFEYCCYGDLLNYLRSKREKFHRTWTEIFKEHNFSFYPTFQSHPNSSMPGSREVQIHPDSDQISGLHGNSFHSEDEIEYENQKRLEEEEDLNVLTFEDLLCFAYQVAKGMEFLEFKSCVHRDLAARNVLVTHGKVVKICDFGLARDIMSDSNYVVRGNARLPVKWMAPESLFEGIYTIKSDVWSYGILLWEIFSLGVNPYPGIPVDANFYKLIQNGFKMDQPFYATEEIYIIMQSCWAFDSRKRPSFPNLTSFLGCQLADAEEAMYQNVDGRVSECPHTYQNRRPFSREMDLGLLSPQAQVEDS
Method in brief: as §1

Pim-1 = Pim-1 (Homo sapiens (Human), UniProt P11309); experiment: ADP-Glo Kinase Assay, Pim-1; type: biochemical; conditions: 1 μM compound
Pim-1, sequence (P11309 whole entry): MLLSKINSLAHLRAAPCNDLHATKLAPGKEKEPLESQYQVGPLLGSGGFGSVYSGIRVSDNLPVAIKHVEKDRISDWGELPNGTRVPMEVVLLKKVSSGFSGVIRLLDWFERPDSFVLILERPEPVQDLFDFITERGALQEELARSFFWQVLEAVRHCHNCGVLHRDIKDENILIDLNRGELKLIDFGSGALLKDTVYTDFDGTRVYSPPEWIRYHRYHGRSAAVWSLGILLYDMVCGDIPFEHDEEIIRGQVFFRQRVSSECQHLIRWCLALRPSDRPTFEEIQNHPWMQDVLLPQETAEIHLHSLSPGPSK
Method in brief: as §1

HEL92 cells = experiment: Growth inhibition, MTS assay, HEL92; type: cell-based, Human; conditions: 72 hours, MTS cell viability; read-out: HEL92 ED50

Pim-2, sequence (Q9P1W9 whole entry): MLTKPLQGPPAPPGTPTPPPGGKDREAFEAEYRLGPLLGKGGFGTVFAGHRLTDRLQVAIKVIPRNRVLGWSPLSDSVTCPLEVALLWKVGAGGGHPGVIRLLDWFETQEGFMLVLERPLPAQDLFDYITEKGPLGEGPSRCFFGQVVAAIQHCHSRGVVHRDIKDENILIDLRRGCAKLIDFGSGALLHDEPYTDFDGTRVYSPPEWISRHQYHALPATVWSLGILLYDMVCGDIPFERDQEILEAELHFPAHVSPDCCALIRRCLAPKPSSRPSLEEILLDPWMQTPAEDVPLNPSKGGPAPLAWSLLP

For `CCn1c(N2CCC[C@H](N)C2)nc2c([N+](=O)[O-])c(Br)c(Br)cc21` [Example 1AH], the “Pim-2 % INH (1 μM)” value (Pim-2) was 55%, the “Flt3ITD % INH (1 μM)” value (FLT3-ITD) was 29% and the IC50 (HepG2 cells) was 2.2 µM. The IC50 (MOLM16 cells) was 0.2 µM, the “CDK2/E % INH (1 μM)” value (CDK2/E) was 6% and the “KG-1 ED50” value (KG-1 cells) was 0.65 µM. The IC50 (SW-480 cells) was 7.0 µM, the IC50 (Jeko-1 cells) was 1.9 µM and the “DYRK1A % INH (1 μM)” value (DYRK1) was 39%. The “Pim-3 % INH (1 μM)” value (Pim-3) was greater than 95%, the IC50 (MOLM13 cells) was 1.8 µM and the “TGI (tumor growth inhibition)” value (MV4-11 xenograft; 150 mg/Kg QD) was 74%. For the same compound, the “ΔBW (body weight change)” value (MV4-11 xenograft; 150 mg/Kg QD) was 0.6%, the “TGI (tumor growth inhibition)” value (MV4-11 xenograft; doses as in Table 3) was “more than 70%” and the IC50 (MV4-11 cells) was 0.6 µM. For the same compound, the “Flt3wt % INH (1 μM)” value (FLT3wt) was 9%, the “Pim-1 % INH (1 μM)” value (Pim-1) was greater than 95% and the IC50 (HEL92 cells) was 6.0 µM.

Reference: US10174013B2, “Benzimidazole derivatives as kinase inhibitors” (SELVITA S.A., priority 2012, dated 2019)
